# Data reported in ChEMBL document CHEMBL1129220, “Synthesis and structure-activity relationships of novel 3-Hty-substituted pneumocandins” (Bioorg Med Chem Lett, 1997).
# Tested on: Mus musculus
# Assay: In vivo anti-Candida activity was obtained in the target organ kidney assay (TOKA), a mouse model of disseminated candidiasis; 20% of animals in test group with kidneys were completely sterilized of Candida albicans at the ED99.9 dose
# Assay type: functional
row,SMILES,ED99.9 [mg/kg]
1,CCC(C)CC(C)CCCCCCCCC(=O)N[C@@H]1C[C@@H](O)[C@@H](O)NC(=O)[C@@H]2[C@@H](O)CCN2C(=O)[C@H]([C@@H](O)CC(N)=O)NC(=O)[C@H]([C@@H](O)[C@H](O)c2ccc(O)cc2)NC(=O)[C@@H]2C[C@@H](O)CN2C(=O)[C@H]([C@@H](C)O)NC1=O (some centres undefined),6

# Tested on: Mus musculus
# Assay: In vivo anti-Candida activity was obtained in the target organ kidney assay (TOKA), a mouse model of disseminated candidiasis; 0% of animals in test group with kidneys were completely sterilized of Candida albicans at the ED99.9 dose
# Assay type: functional
row,SMILES,ED99.9 [mg/kg]
1,CCC(C)CC(C)CCCCCCCCC(=O)N[C@@H]1C[C@@H](O)[C@@H](O)NC(=O)[C@@H]2[C@@H](O)CCN2C(=O)[C@H]([C@@H](O)CC(N)=O)NC(=O)[C@H]([C@@H](O)[C@H](O)c2ccc(O)c(NC(=O)CCN)c2)NC(=O)[C@@H]2C[C@@H](O)CN2C(=O)[C@H]([C@@H](C)O)NC1=O (some centres undefined),0.78
2,CCC(C)CC(C)CCCCCCCCC(=O)N[C@@H]1C[C@@H](O)[C@@H](O)NC(=O)[C@@H]2[C@@H](O)CCN2C(=O)[C@H]([C@@H](O)CC(N)=O)NC(=O)[C@H]([C@@H](O)[C@H](O)c2ccc(O)c(NC(=O)CCC(=O)O)c2)NC(=O)[C@@H]2C[C@@H](O)CN2C(=O)[C@H]([C@@H](C)O)NC1=O (some centres undefined),6

# Tested on: Candida albicans
# Assay: In vitro minimum fungicidal concentration against Candida albicans (MY 1055) using a whole cell broth microdilution assay.
# Assay type: functional
row,SMILES,MFC [µg/mL]
1,CCC(C)CC(C)CCCCCCCCC(=O)N[C@@H]1C[C@@H](O)CNC(=O)[C@@H]2[C@@H](O)CCN2C(=O)[C@H]([C@@H](O)CC(N)=O)NC(=O)[C@H]([C@@H](O)Cc2ccc(O)c([N+](=O)[O-])c2)NC(=O)[C@@H]2C[C@@H](O)CN2C(=O)[C@H]([C@@H](C)O)NC1=O (some centres undefined),2
2,CCC(C)CC(C)CCCCCCCCC(=O)N[C@@H]1C[C@@H](O)[C@@H](O)NC(=O)[C@@H]2[C@@H](O)CCN2C(=O)[C@H]([C@@H](O)CC(N)=O)NC(=O)[C@H]([C@@H](O)[C@H](O)c2ccc(O)c([N+](=O)[O-])c2)NC(=O)[C@@H]2C[C@@H](O)CN2C(=O)[C@H]([C@@H](C)O)NC1=O (some centres undefined),8
3,CCCc1cc(C[C@H](O)[C@@H]2NC(=O)[C@@H]3C[C@@H](O)CN3C(=O)[C@H]([C@@H](C)O)NC(=O)[C@H](NC(=O)CCCCCCCCC(C)CC(C)CC)C[C@@H](O)CNC(=O)[C@@H]3[C@@H](O)CCN3C(=O)[C@H]([C@@H](O)CC(N)=O)NC2=O)ccc1O (some centres undefined),0.5
4,CCC(C)CC(C)CCCCCCCCC(=O)N[C@@H]1C[C@@H](O)[C@@H](O)NC(=O)[C@@H]2[C@@H](O)CCN2C(=O)[C@H]([C@@H](O)CC(N)=O)NC(=O)[C@H]([C@@H](O)[C@H](O)c2ccc(O)cc2)NC(=O)[C@@H]2C[C@@H](O)CN2C(=O)[C@H]([C@@H](C)O)NC1=O (some centres undefined),0.25
5,CCC(C)CC(C)CCCCCCCCC(=O)N[C@@H]1C[C@@H](O)CNC(=O)[C@@H]2[C@@H](O)CCN2C(=O)[C@H]([C@@H](O)CC(N)=O)NC(=O)[C@H]([C@@H](O)Cc2ccc(O)c(C(=O)OC)c2)NC(=O)[C@@H]2C[C@@H](O)CN2C(=O)[C@H]([C@@H](C)O)NC1=O (some centres undefined),2
6,CCC(C)CC(C)CCCCCCCCC(=O)N[C@@H]1C[C@@H](O)[C@@H](O)NC(=O)[C@@H]2[C@@H](O)CCN2C(=O)[C@H]([C@@H](O)CC(N)=O)NC(=O)[C@H]([C@@H](O)[C@H](O)c2ccc(O)c(N)c2)NC(=O)[C@@H]2C[C@@H](O)CN2C(=O)[C@H]([C@@H](C)O)NC1=O (some centres undefined),2
7,CCC(C)CC(C)CCCCCCCCC(=O)N[C@@H]1C[C@@H](O)[C@@H](O)NC(=O)[C@@H]2[C@@H](O)CCN2C(=O)[C@H]([C@@H](O)CC(N)=O)NC(=O)[C@H]([C@@H](O)[C@H](O)c2ccc(O)c(I)c2)NC(=O)[C@@H]2C[C@@H](O)CN2C(=O)[C@H]([C@@H](C)O)NC1=O (some centres undefined),4
8,CCC(C)CC(C)CCCCCCCCC(=O)N[C@@H]1C[C@@H](O)CNC(=O)[C@@H]2[C@@H](O)CCN2C(=O)[C@H]([C@@H](O)CC(N)=O)NC(=O)[C@H]([C@@H](O)Cc2ccc(O)c(C=O)c2)NC(=O)[C@@H]2C[C@@H](O)CN2C(=O)[C@H]([C@@H](C)O)NC1=O (some centres undefined),1
9,C=CCc1cc(C[C@H](O)[C@@H]2NC(=O)[C@@H]3C[C@@H](O)CN3C(=O)[C@H]([C@@H](C)O)NC(=O)[C@H](NC(=O)CCCCCCCCC(C)CC(C)CC)C[C@@H](O)CNC(=O)[C@@H]3[C@@H](O)CCN3C(=O)[C@H]([C@@H](O)CC(N)=O)NC2=O)ccc1O (some centres undefined),1
10,CCC(C)CC(C)CCCCCCCCC(=O)N[C@@H]1C[C@@H](O)CNC(=O)[C@@H]2[C@@H](O)CCN2C(=O)[C@H]([C@@H](O)CC(N)=O)NC(=O)[C@H]([C@@H](O)Cc2ccc(O)c(N=[N+]=[N-])c2)NC(=O)[C@@H]2C[C@@H](O)CN2C(=O)[C@H]([C@@H](C)O)NC1=O (some centres undefined),4
11,CCC(C)CC(C)CCCCCCCCC(=O)N[C@@H]1C[C@@H](O)CNC(=O)[C@@H]2[C@@H](O)CCN2C(=O)[C@H]([C@@H](O)CC(N)=O)NC(=O)[C@H]([C@@H](O)Cc2ccc3c(c2)CC(O)O3)NC(=O)[C@@H]2C[C@@H](O)CN2C(=O)[C@H]([C@@H](C)O)NC1=O (some centres undefined),1
12,CCC(C)CC(C)CCCCCCCCC(=O)N[C@@H]1C[C@@H](O)[C@@H](O)NC(=O)[C@@H]2[C@@H](O)CCN2C(=O)[C@H]([C@@H](O)CC(N)=O)NC(=O)[C@H]([C@@H](O)[C@H](O)c2ccc(O)c(NC(=O)CS)c2)NC(=O)[C@@H]2C[C@@H](O)CN2C(=O)[C@H]([C@@H](C)O)NC1=O (some centres undefined),2
13,CCC(C)CC(C)CCCCCCCCC(=O)N[C@@H]1C[C@@H](O)[C@@H](O)NC(=O)[C@@H]2[C@@H](O)CCN2C(=O)[C@H]([C@@H](O)CC(N)=O)NC(=O)[C@H]([C@@H](O)[C@H](O)c2cc(I)c(O)c(I)c2)NC(=O)[C@@H]2C[C@@H](O)CN2C(=O)[C@H]([C@@H](C)O)NC1=O (some centres undefined),8
14,CCC(C)CC(C)CCCCCCCCC(=O)N[C@@H]1C[C@@H](O)[C@@H](O)NC(=O)[C@@H]2[C@@H](O)CCN2C(=O)[C@H]([C@@H](O)CC(N)=O)NC(=O)[C@H]([C@@H](O)[C@H](O)c2ccc(O)c(NC(=O)CCN)c2)NC(=O)[C@@H]2C[C@@H](O)CN2C(=O)[C@H]([C@@H](C)O)NC1=O (some centres undefined),0.25
15,CCC(C)CC(C)CCCCCCCCC(=O)N[C@@H]1C[C@@H](O)CNC(=O)[C@@H]2[C@@H](O)CCN2C(=O)[C@H]([C@@H](O)CC(N)=O)NC(=O)[C@H]([C@@H](O)Cc2ccc(O)c(O)c2)NC(=O)[C@@H]2C[C@@H](O)CN2C(=O)[C@H]([C@@H](C)O)NC1=O (some centres undefined),0.5
16,CCC(C)CC(C)CCCCCCCCC(=O)N[C@@H]1C[C@@H](O)[C@@H](O)NC(=O)[C@@H]2[C@@H](O)CCN2C(=O)[C@H]([C@@H](O)CC(N)=O)NC(=O)[C@H]([C@@H](O)[C@H](O)c2ccc(O)c(N=[N+]=[N-])c2)NC(=O)[C@@H]2C[C@@H](O)CN2C(=O)[C@H]([C@@H](C)O)NC1=O (some centres undefined),0.5
17,C=Cc1cc(C[C@H](O)[C@@H]2NC(=O)[C@@H]3C[C@@H](O)CN3C(=O)[C@H]([C@@H](C)O)NC(=O)[C@H](NC(=O)CCCCCCCCC(C)CC(C)CC)C[C@@H](O)CNC(=O)[C@@H]3[C@@H](O)CCN3C(=O)[C@H]([C@@H](O)CC(N)=O)NC2=O)ccc1O (some centres undefined),1
18,CCC(C)CC(C)CCCCCCCCC(=O)N[C@@H]1C[C@@H](O)[C@@H](O)NC(=O)[C@@H]2[C@@H](O)CCN2C(=O)[C@H]([C@@H](O)CC(N)=O)NC(=O)[C@H]([C@@H](O)[C@H](O)c2ccc(O)c(NC(=O)CCC(=O)O)c2)NC(=O)[C@@H]2C[C@@H](O)CN2C(=O)[C@H]([C@@H](C)O)NC1=O (some centres undefined),0.25
19,CCc1cc(C[C@H](O)[C@@H]2NC(=O)[C@@H]3C[C@@H](O)CN3C(=O)[C@H]([C@@H](C)O)NC(=O)[C@H](NC(=O)CCCCCCCCC(C)CC(C)CC)C[C@@H](O)CNC(=O)[C@@H]3[C@@H](O)CCN3C(=O)[C@H]([C@@H](O)CC(N)=O)NC2=O)ccc1O (some centres undefined),1
20,CCC(C)CC(C)CCCCCCCCC(=O)N[C@@H]1C[C@@H](O)CNC(=O)[C@@H]2[C@@H](O)CCN2C(=O)[C@H]([C@@H](O)CC(N)=O)NC(=O)[C@H]([C@@H](O)Cc2ccc(O)c(N)c2)NC(=O)[C@@H]2C[C@@H](O)CN2C(=O)[C@H]([C@@H](C)O)NC1=O (some centres undefined),2
21,CCC(C)CC(C)CCCCCCCCC(=O)N[C@@H]1C[C@@H](O)[C@@H](O)NC(=O)[C@@H]2[C@@H](O)CCN2C(=O)[C@H]([C@@H](O)CC(N)=O)NC(=O)[C@H]([C@@H](O)[C@H](O)c2ccc(O)c(NC(=O)CN)c2)NC(=O)[C@@H]2C[C@@H](O)CN2C(=O)[C@H]([C@@H](C)O)NC1=O (some centres undefined),0.25
22,CCC(C)CC(C)CCCCCCCCC(=O)N[C@@H]1C[C@@H](O)CNC(=O)[C@@H]2[C@@H](O)CCN2C(=O)[C@H]([C@@H](O)CC(N)=O)NC(=O)[C@H]([C@@H](O)Cc2ccc(O)c(I)c2)NC(=O)[C@@H]2C[C@@H](O)CN2C(=O)[C@H]([C@@H](C)O)NC1=O (some centres undefined),0.5
23,CCC(C)CC(C)CCCCCCCCC(=O)N[C@@H]1C[C@@H](O)CNC(=O)[C@@H]2[C@@H](O)CCN2C(=O)[C@H]([C@@H](O)CC(N)=O)NC(=O)[C@H]([C@@H](O)Cc2ccc(O)cc2)NC(=O)[C@@H]2C[C@@H](O)CN2C(=O)[C@H]([C@@H](C)O)NC1=O (some centres undefined),0.25
24,CCC(C)CC(C)CCCCCCCCC(=O)N[C@@H]1C[C@@H](O)[C@@H](O)NC(=O)[C@@H]2[C@@H](O)CCN2C(=O)[C@H]([C@@H](O)CC(N)=O)NC(=O)[C@H]([C@@H](O)[C@H](O)c2ccc(O)c(NC(C)=O)c2)NC(=O)[C@@H]2C[C@@H](O)CN2C(=O)[C@H]([C@@H](C)O)NC1=O (some centres undefined),1
25,CCC(C)CC(C)CCCCCCCCC(=O)N[C@@H]1C[C@@H](O)CNC(=O)[C@@H]2[C@@H](O)CCN2C(=O)[C@H]([C@@H](O)CC(N)=O)NC(=O)[C@H]([C@@H](O)Cc2ccc(O)c(CCO)c2)NC(=O)[C@@H]2C[C@@H](O)CN2C(=O)[C@H]([C@@H](C)O)NC1=O (some centres undefined),0.5

# Tested on: Mus musculus
# Assay: In vivo anti-Candida activity was obtained in the target organ kidney assay (TOKA), a mouse model of disseminated candidiasis; 40% of animals in test group with kidneys were completely sterilized of Candida albicans at the ED99.9 dose
# Assay type: functional
row,SMILES,ED99.9 [mg/kg]
1,CCC(C)CC(C)CCCCCCCCC(=O)N[C@@H]1C[C@@H](O)[C@@H](O)NC(=O)[C@@H]2[C@@H](O)CCN2C(=O)[C@H]([C@@H](O)CC(N)=O)NC(=O)[C@H]([C@@H](O)[C@H](O)c2ccc(O)c(NC(=O)CN)c2)NC(=O)[C@@H]2C[C@@H](O)CN2C(=O)[C@H]([C@@H](C)O)NC1=O (some centres undefined),0.75
